For one data set, the system named is fingernails. Nature of the data set: In vivo tests of efficacy on a panel of people, polish applied to nails. Conditions: hexanal 0.05% by weight, panel of 22, four weeks. The source says: The composition from example 1 was the subject of in vivo tests on a panel of 22 people aged at least 30 years old, over four weeks, in order to evaluate the efficacy and tolerance. […] The polish was applied under normal usage conditions (namely three applications per week).
The marks of general satisfaction with the cosmetic composition oscillated between 16.9 and 18.3/20.
The marks of general satisfaction with the cosmetic composition oscillated between 16 and 17.3/20.

Another data set concerns nails. Nature of the data set: In vivo comparison of hexanal composition with citral composition, one hand each. The conditions noted are these: same concentrations, panel of 22, four weeks. Details: species or system people. The source says:
The composition of example 1 and also a composition 1a identical to that of example 1, but in which the hexanal has been replaced by citral, in the same concentrations, were the subject of in vivo tests on a new panel of 22 people under the same conditions as those of the tests from example 1. Each person applied the composition with hexanal to the nails of one hand, and the composition with citral to the nails of the other hand. The right hand/left hand choice was random.

The nature of data set [1]: Aging and yellowing tests. The class given is physicochemical. The procedure: Various aliphatic aldehydes were incorporated into a cosmetic composition, having a formulation corresponding to example 2, at concentrations respectively of 0.001%, 0.002%, 0.005% and 0.01%.
These were methylbutyraldehyde (by way of comparison), hexanal, nonanal, trans-4-decenal, undecanal and undecylenic aldehyde.
The aging, and in particular the tendency toward yellowing, of each composition were tested. The various tests performed comprise holding for one month in an oven at 45° C. and four months in an oven at 50° C., and also exposure to “SUNTEST CPS+”, i.e. in a sealed chamber, regulated at 50° C. under a 500 Watt/m^2 UV/visible lamp for 3×10 hours.
The yellowing was evaluated relative to control compositions having identical formulations, kept at room temperature (20-25° C.), in the dark, for the same duration.

[2] abbreviates: 0.01% by weight in composition, aging tests relative to controls.
The mark [3] stands for this setting: 0.01% in composition, one month in an oven at 45° C., relative to controls at room temperature in the dark.

For `CCCCCC=O` [hexanal], in the data set with fingernails, the “Subjects who noticed an overall improvement in the quality of their nails” value is recorded as “more than 90%”. Further, in the data set on nails, the “Superiority to citral in improvement of brittle nails” value is on record as “+10%”, the “Superiority to citral in improvement of nail hardness” value is on record as “+8.5%” and the “Superiority to citral in improvement of nail weakness” value is “+18%”. For the same compound, the Yellowing result in data set [1] (setting [2]) is “did not exhibit yellowing”.
For `CCCCCCCCC=O` [nonanal], the Yellowing entry in data set [1] (setting [2]) is reported as “did not exhibit yellowing”.
As to `CCCCC/C=C/CCC=O` [trans-4-decenal], the Yellowing entry in data set [1] (setting [2]) is listed as “did not exhibit yellowing”.
On the same count and under the same terms, the result for `CCCCCCCCCCC=O` [undecanal] reads “did not exhibit yellowing”.
For the compound `C=CCCCCCCCCC=O` [undecylenic aldehyde, 10-undecenal], the Yellowing result in data set [1] (setting [3]) is “exhibited yellowing”.
Same read-out and setting: as for “methylbutyraldehyde [reference compound]”, the entry is “exhibited yellowing”.
